The record followed here is patent publication US8232253B2, “Treatment of lung cancer” (Ramot at Tel-Aviv University Ltd., priority 2006, dated 2012).

Test [1] concerns A549 cells. Nature of the test: A549-cell-implanted nude mouse model, tumor growth. Type of test: in vivo, nude mice. The conditions noted are these: gemcitabine alone 36 mg/kg i.p. every 4 days (FIG. 14D). The procedure: Nude mice (6 weeks old) were housed in barrier facilities on a 12-h light/dark cycle. Food and water were supplied ad libitum. On day zero, A549 or HTB-58 cells (5×10^6 cells in 0.1 ml PBS) were implanted subcutaneously (s.c.) just above the right femoral joint. After 5 or 11 days the mice were separated randomly into control groups that had received only the vehicle and FTS-treated groups. Daily FTS treatments were administered either intraperitoneally (i.p.) or orally. Tumor volumes or weights were determined as described in Barkan, B., Starinsky, S., Friedman, E., Stein, R., Kloog, Y., Clin Cancer Res 12:5533-42 (2006). Gemcitabine treatment (36 mg/kg, i.p.) was administered every 4 days.
To determine whether FTS inhibited tumor growth in vivo, experiments were conducted using a nude mouse model. The lung cancer cells were implanted s.c. above the right femoral joint and the mice were then treated with FTS. In a first experiment, the effect of i.p. administration of FTS on tumor growth in A549 cells was assessed. Treatment was started 5 days after cell implantation, by which time the tumors were palpable. Tumor volumes were determined 24 days after implantation in two groups of mice (n=8) that had received daily i.p. administration of either the vehicle (control) or 10 mg/kg FTS.
In an additional set of experiments, the A549-cell-implanted nude mouse model was used to examine the effect of orally administered FTS on tumor growth. First, cells were implanted as described above and daily oral treatment with FTS (50 mg/kg; n=6) or vehicle (n=5) was started either 11 days (FIG. 14C) or 6 days (FIG. 14D) after implantation. […] Next, the effects of orally administered FTS, alone or in combination with gemcitabine, on A549-cell tumor growth was examined (FIG. 14D). Six days after cell implantation, mice were divided into four groups (n=8 per group) and treated orally with vehicle alone (control), FTS alone (60 mg/kg), vehicle and gemcitabine (36 mg/kg, i.p. every 4 days), or FTS and gemcitabine. Treatments with gemcitabine began 1 week after FTS treatment was started.

Test [2] concerns A549 cells. As to the kind of experiment: Drug combination experiments, live cell counting. Type of test: cell-based, human. The conditions noted are these: 4 h. The procedure: In drug combination experiments, cells were grown for 2 days in the absence or in the presence of 40 μM FTS and were then treated for 4 h with gemcitabine (100 or 200 nM), cisplatin (50 or 100 nM), doxorubicin (50 or 100 nM), or paclitaxel (2.5 or 5 nM). Live cells were counted after a further 3 days of incubation with or without FTS. Experiments were performed twice in quadruplicate. To determine whether A549 cells were resistant to apoptosis, an experiment to examine the survival of human lung cancer A549 cells after exposure to a chemotherapeutic agent in the presence of FTS was performed. Thus, to determine whether treatment with FTS can increase the sensitivity of A549 cells to cytotoxic drugs, A549 cells were incubated for 48 h with DMSO (control) or with 40 μM FTS, then for 4 h with gemcitabine, cisplatin, doxorubicin, or paclitaxel at the indicated concentrations. The cells were then washed and incubated for a further 72 h with DMSO or with 40 μM FTS. Live cells were collected and counted. The numbers of cells in the drug-treated cultures, expressed as percentages of the numbers in the vehicle-treated control, are shown in FIGS. 13A-13D. Values are means±SD. *P<0.05, **P<0.01, compared to vehicle-treated control.

SMILES strings stand for the structures.

With `Cl.Nc1ccn([C@@H]2O[C@H](CO)[C@@H](O)C2(F)F)c(=O)n1` [gemcitabine, 2′-deoxy-2′,2′-difluorocytidine monohydrochloride], in the test on A549 cells [1], the “effect on tumor weight” value is “significant reduction in tumor weight”. Moreover, the “reduction in cell numbers” value in the test with A549 cells [2] (gemcitabine alone 100 nM) and in the test on A549 cells [2] (gemcitabine alone 200 nM) was under 11% throughout.

Take `N.N.[Cl][Pt][Cl]` [cisplatin, cis-diamminedichloroplatinum(II)]: the “reduction in cell numbers” value with A549 cells [2] (cisplatin alone 50 nM) is given as 11±11%; in the test on A549 cells [2] (cisplatin alone 100 nM), 30±12.9%.
